# Values quoted from earlier work in patent US11195597B2, “Method and device for calculating acid dissociation constant, and program” (FUJITSU LIMITED, priority 2015, dated 2021).
# Conditions: known measured value; dissociation point circled in the structure
row,pKa,SMILES
1,9.04,CC(CCCNC(N)N)C(=O)O.N (stereo not drawn) [Number 10]
2,12.48,CC(CCCNC(N)N)C(=O)O (stereo not drawn) [Number 11]
3,8.8,CC(CC(N)=O)C(=O)O.N (stereo not drawn) [Number 12]
4,11,CCCNCCC [Number 22]
5,10.02,CCCCN(C)C [Number 32]
6,9.67,CC(CCC(=O)O)C(=O)O.N (stereo not drawn) [Number 41]
7,9.17,CC(Cc1cnc[nH]1)C(=O)O.N (stereo not drawn) [Number 43]
8,8.95,CC(CCCCN)C(=O)O.N (stereo not drawn) [Number 47]
9,10.53,NCCCCC(N)C(=O)O (stereo not drawn) [Number 48]
10,7.78,O=C(c1ccccc1)N1CCNCC1 [Number 52]
11,10.21,CC(C)(C)CN [Number 58]
12,9.13,"N[C@@H](Cc1ccccc1)C(=O)O [Number 59, phenylalanine]"
13,10.49,"NCCCCCc1ccccc1 [Number 60, phenylamylamine]"
14,10.4,NCCCCc1ccccc1 [Number 61]
15,10.2,NCCCc1ccccc1 [Number 63]
16,9.15,NC(CO)C(=O)O (stereo not drawn) [Number 72]

row,pKa,SMILES
1,10.89,"CCCCN(CCCC)CCCC [Number 76, tri-n-butylamine]"
2,9.39,NC(Cc1c[nH]c2ccccc12)C(=O)O (stereo not drawn) [Number 82]
3,3.3,"COc1ccccn1 [Number 90, 2-methoxypyridine]"
4,−2.6,"O=[N+]([O-])c1ccccn1 [Number 94, 2-nitropyridine]"
5,4.9,"COc1cccnc1 [Number 96, 3-methoxypyridine]"
6,5.7,Cc1cccnc1 [Number 97]
7,0.6,"O=[N+]([O-])c1cccnc1 [Number 99, 3-nitropyridine]"
8,4.8,"c1ccc(-c2cccnc2)cc1 [Number 100, 3-phenylpyridine]"
9,6.6,"COc1ccncc1 [Number 101, 4-methoxypyridine]"
10,1.6,"O=[N+]([O-])c1ccncc1 [Number 104, 4-nitropyridine]"
11,0.78,c1ccc(Nc2ccccc2)cc1 [Number 108]
12,5.14,"c1ccc2cnccc2c1 [Number 120, isoquinoline]"
13,2.5,c1ncc2[nH]cnc2n1 [Number 123]
14,8.9,c1ncc2[nH]cnc2n1 [Number 124]
15,5,"c1ccc2c(c1)CCCN2 [Number 132, tetrahydroquinoline]"

# Further lines, the molecule ahead of its results:
row,SMILES,pKa
1,CC(C)C(=O)O.N [Number 5],9.69
2,CC(CC(=O)O)C(=O)O.N (stereo not drawn) [Number 13],9.82
3,CCc1ccccc1.N [Number 14],9.34
4,CCNCc1ccccc1 [Number 15],9.68
5,CNCc1ccccc1 [Number 16],9.58
6,CC1CCCCC1.N [Number 17],10.64
7,CNC1CCCCC1 [Number 18],10.49
8,"CCC(C)NC(C)CC (stereo not drawn) [Number 23, di-sec-butylamine]",11.01
9,C=CCNCC=C [Number 24],9.29
10,C=CCN(C)CC=C [Number 25],8.79
11,"CC(C)CNCC(C)C [Number 28, di-isobutylamine]",10.5
12,CCCN(C)C [Number 33],9.99
13,CC(C)CN(C)C [Number 35],10.52
14,CCC(C)C(C)C(=O)O.N (stereo not drawn) [Number 44],9.68
15,O=C(O)C1CCCN1 (stereo not drawn) [Number 67],10.6
16,"C[C@@H](O)[C@H](N)C(=O)O [Number 75, threonine]",9.1
17,CC(C)C(N)C(=O)O (stereo not drawn) [Number 84],9.62
18,"Nc1ccc2ccccc2c1 [Number 92, 2-naphthalamine]",4.16
19,"N#Cc1ccccn1 [Number 93, 2-cyanopyridine]",−0.3
20,"N#Cc1cccnc1 [Number 98, 3-cyanopyridine]",1.4
21,"N#Cc1ccncc1 [Number 103, 4-cyanopyridine]",1.9
22,"c1ccc(-c2ccncc2)cc1 [Number 105, 4-phenylpyridine]",5.5
23,CN(C)c1ccccc1 [Number 109],5.2
24,c1ccc2[nH]cnc2c1 [Number 112],16.4
25,c1ccc2cc3ncccc3cc2c1 [Number 113],5.05
26,c1ccc2c(c1)[nH]c1ccccc12 [Number 114],19.9
